According to patent US11179384B2, “Treatment of nonalcoholic fatty liver disease” (TAKEDA GMBH, priority 2016, dated 2021):

Key:
[1] = system: tissue inhibitor of metalloproteases-1 (TIMP-1) gene expression; test: Hepatic gene expression in prophylactic NASH mouse model, TIMP-1 (Taqman PCR); type: in vivo; conditions: LDLR-KO mice on mCDAA diet; 1, 3 and 10 mg/kg p.o. QD for 7 weeks; liver mRNA
Method: Homozygous low-density lipoprotein receptor knockout (LDLR-KO) mice were fed with chow or modified choline deficient, L-amino acid-defined (mCDAA) diet (A08111307, Research Diets, USA). After 1 week under chow or mCDAA diet, the mice were orally dosed with Compound A (1, 3 and 10 mg/5 ml/kg, QD, n=10; suspension in 0.5 w/v % methylcellulose suspension) for 7 weeks.
In addition prophylactic effects of Compound A on hepatic gene expression were evaluated. After total RNA was extracted from liver, cDNA was amplified using High-Capacity cDNA Reverse Transcription Kit (ABI 4368813), and target gene mRNA was measured using Taqman PCR. The target gene expression level was normalized by GAPDH.

[2] = system: TNFα gene expression in THP-1 cells; test: Anti-inflammatory effect in THP-1 cells (LPS-induced TNFα gene expression); type: cell-based, human; conditions: PMA-treated THP-1 cells; 0.0001-1 μM, LPS 1 ng/mL, forskolin 0.1 μM, 5 hours
Method: Anti-inflammatory effect of Compound A was evaluated by gene expression of TNFα induced by LPS in THP-1 cells, a human monocytic cell line.
THP-1 cells (ATCC) were suspended in RPMI medium containing 10% FBS and 50 ng/mL PMA (2.5×10^5 cells/mL) and seeded on 96 well plates. Fourty-eight hours after the seeding, the medium was exchanged to serum-free RPMI medium. Three hours after the exchange, Compound A (0, 0.0001, 0.001, 0.01, 0.1 and 1 μM), LPS (1 ng/mL), and forskolin (0.1 μM) were added to the THP-1 cells. After the 5-hours incubation, total RNA was extracted from cell lysate using RNeasy 96 Kit (QIAGEN 74182). cDNA was amplified using High-Capacity cDNA Reverse Transcription Kit (ABI 4368813), and target gene mRNA was measured using Taqman PCR. The target gene expression level was normalized by GAPDH. The experiment was repeated 5 times.

## CCOc1cc2c(cc1OC)C(c1ccc(=O)n(C)c1)=N[C@@H]1CC[C@@H](O)C[C@H]21 [Compound A, 5-((2R,4aR,10bR)-9-Ethoxy-2-hydroxy-8-methoxy-1,2,3,4,4a,10b-hexahydro-phenanthridin-6-yl)-1-methyl-1H-pyridin-2-one]
[1]
  hepatic TIMP-1 gene expression (normalized by GAPDH): dose-dependent reduction
[2]
  LPS-induced TNF-α gene expression in THP-1 cells: dose-dependently suppressed
